Data on 8 molecules can be found in US5922557A, “System for stably expressing a high-affinity camp phosphodiesterase and use thereof” (Merck & Co., Inc., priority 1998, dated 1999).

One may read the EC50 as the midpoint of the concentration-response curve. A word on the IC50: it is the midpoint of a concentration-inhibition curve. Broadly, the Km is the substrate concentration at which the rate is half of its maximum.

“Also recorded” adds a separate entry of the source. Where two headings read alike, the source gives them in different places.

The test system of data set [1] is high-affinity rolipram binding site, rat forebrain membranes. The settings on record: cited from earlier work.
For data set [2], the system named is PKA in CHO-K1 cells stably expressing PDE IVa. The data set can be described thus: Whole-cell cAMP dependent protein kinase (PKA) activity ratio. It is filed as cell-based. The settings on record: CHO-K1; with 1 μM PGI2; read-out: apparent EC50 to activate PKA. Here is the method:
PKA activity ratios were determined as the amount of ^32 P transferred to histone F2B in the presence and absence of cAMP as described in Materials and Methods. Data points represent the fractional PKA activation by incubating cells with the indicated concentrations of inhibitor and […]. Experiments were performed in triplicate. n=3 experiments±SD.
CHO-K1 cells were grown and resuspended as described above except that the Hank's buffer was replaced by a solution containing 0.25M sucrose; 10 mM Tris, pH 7.5; and 0.5 mM EDTA. The cells were preincubated and incubated with 1 μM PGI2 and the indicated compounds at room temperature as described above. The incubations were terminated by the addition of 0.05% Triton X-100 (final) and incubating the cells for 5 min on ice. […] This mixture (final volume 220 μl) was incubated in a waterbath for 30 min at 35° C. and terminated by adding 5 ml of ice cold 5% TCA. The precipatated protein was applied to a Whatman GF/B filter under vacuum and the filter was subsequently washed with 3×5 ml ice cold TCA solution. The amount of -32P incorporation was measured by placing the filters in Aquasol and counting in a BECKMAN LSC 5000. Basal cAMP independent protein kinase activity was determined by the inclusion of 1 μM Protein Kinase A Peptide Inhibitor (19) in the reaction mixture. Maximal cAMP protein kinase activity was determined in the presence of 10 μM cAMP. All determinations were performed in triplicate and activity ratios were calculated as the [(kinase activity in the presence of PDE inhibitor minus cAMP independent kinase activity)/(maximal cAMP kinase activity minus cAMP independent kinase activity)]×100.

The test system of data set [3] is CHO-K1 cells stably expressing rhPDE IVa. Kind of data set: cells. It counts as cell-based. The conditions noted are these: for effect of preincubation on sensitivity of the enzyme to inhibitors: whole-cell preparation, data not shown. Here is the method: Levels of cAMP were measured in CHO-K1 cells stably expressing PDE IVa enzyme as outlined in Materials and Methods.
CHO-K1 cells were plated at a density of 10^6 cells/175 cm^2 containing complete media with 500 μg/ml hygromycin. The flasks were maintained in an incubator at 37° C. with 5.0% CO2 for 72 hr. The media was changed and the cells were allowed to grow overnight. The cells were washed and dissociated from the plate with PBS containing 0.5 mM EDTA. Cellular cAMP content was measured by centrifuging the cell suspension at 150 g×10 min and resuspending the cells in a Hanks buffered salt solution at a density of 0.2×10^6 cells/ml. The cells were preincubated at room temperature for 15 min and then incubated with 10 μM prostaglandin I2 (PGI2) and the indicated compound for an additional 10 min. Basal cAMP levels were determined by incubating the cells in 0.1% DMSO. The incubations were terminated by the addition of HCl (0.1N final) and the cells measured for cAMP.
Determinations of whole-cell cAMP content were performed by incubating 100 μl reconstituted rabbit anti-succinyl cAMP serum with 100 μl of the whole-cell reaction or known cAMP standard and 30 pmol of 125I-cAMP TME in a […]™ well (300 μl final volume) at room temperature for 18 h. Total cpm (Bo) was determined in the absence of sample or cAMP standard. The reaction mixture was then aspirated out of the well, and individual wells were counted in a BECKMAN LS 6000SC with the window open from 10-999 for 1 min. The data were expressed as %B/Bo=[(standard or sample cpm--non-specific cpm)/(Bo cpm-non-specific cpm)]×100. Non-specific cpm were determined by incubating only the 125I-cAMP TME with assay buffer (50 mM acetate; pH 5.8) in the ScintiStrip™ well. All determinations were performed in triplicate.

Data set [4] has as its target T1, recombinant full-length human PDE IVa (rhPDEIVa) (Homo sapiens, UniProt P27815, M723I).
T1 construct: a cDNA insert encoding for a full-length human PDE IVa enzyme; made in house; host or cells: CHO-K1 cells, stably transfected (also expressing the prostanoid IP receptor); 100,000xg supernatant of the sonicate
Kind of data set: Phosphodiesterase Scintillation Proximity Assay, inhibition of soluble rhPDE IVa (100,000×g supernatant of transfected CHO-K1 cells). It is filed as biochemical. As to the method: Inhibition of soluble rhPDEIVa by specific inhibitors was examined at 100 nM substrate. Enzyme activity was determined as described in Materials and Methods using the Amersham SPA beads that specifically bind 5'AMP.
Inhibition of soluble rhPDEIVa by specific inhibitors was examined in the presence of 5 mM to 100 mM MgCl2. Enzyme activity was determined as described in Materials and Methods using the Amersham SPA beads that specifically bind 5'AMP in the presence of […] cAMP substrate.
In general terms: Scintillation proximity formats need no separation of bound from free tracer.

Data set [5] has as its target T1, recombinant full-length human PDE IVa (rhPDEIVa). The data set is described as above. It counts as biochemical. The settings on record: broken-cell preparation; data not shown.
Data set [6] in a line: Kinetic characterization of PDE IVa enzymes with cAMP as substrate. It counts as biochemical. As to the method:
PDE IVa activity was assayed in the 100,000×g supernatant obtained from sonicated CHO-K1 cells stably expressing the enzyme. The enzyme activity was assayed in duplicate at substrate concentrations ranging from 0.2 μM to 30 μM using the Amersham SPA beads as described in Materials and Methods. Shown are the saturation kinetics for the enzyme. The inset graph is a double-reciprocal plot of the kinetic data. Average of 3 separate experiments +/- SD .
Panel A. Shown are the saturation kinetics for the enzyme.PDE IVA activity was assayed in the 100,000×g supernatant obtained from sonicated CHO-K1 cells stably expressing the enzyme. The enzyme activity was assayed in duplicate at substrate concentrations ranging from 0.2 mM to 10 mM using the Amersham SPA beads as described in Materials and Methods. Average of 3 separate experiments +/- SEM . Panel B. Double-reciprocal replot of the averaged saturation data.

T1 sequence (P27815 whole entry M723I): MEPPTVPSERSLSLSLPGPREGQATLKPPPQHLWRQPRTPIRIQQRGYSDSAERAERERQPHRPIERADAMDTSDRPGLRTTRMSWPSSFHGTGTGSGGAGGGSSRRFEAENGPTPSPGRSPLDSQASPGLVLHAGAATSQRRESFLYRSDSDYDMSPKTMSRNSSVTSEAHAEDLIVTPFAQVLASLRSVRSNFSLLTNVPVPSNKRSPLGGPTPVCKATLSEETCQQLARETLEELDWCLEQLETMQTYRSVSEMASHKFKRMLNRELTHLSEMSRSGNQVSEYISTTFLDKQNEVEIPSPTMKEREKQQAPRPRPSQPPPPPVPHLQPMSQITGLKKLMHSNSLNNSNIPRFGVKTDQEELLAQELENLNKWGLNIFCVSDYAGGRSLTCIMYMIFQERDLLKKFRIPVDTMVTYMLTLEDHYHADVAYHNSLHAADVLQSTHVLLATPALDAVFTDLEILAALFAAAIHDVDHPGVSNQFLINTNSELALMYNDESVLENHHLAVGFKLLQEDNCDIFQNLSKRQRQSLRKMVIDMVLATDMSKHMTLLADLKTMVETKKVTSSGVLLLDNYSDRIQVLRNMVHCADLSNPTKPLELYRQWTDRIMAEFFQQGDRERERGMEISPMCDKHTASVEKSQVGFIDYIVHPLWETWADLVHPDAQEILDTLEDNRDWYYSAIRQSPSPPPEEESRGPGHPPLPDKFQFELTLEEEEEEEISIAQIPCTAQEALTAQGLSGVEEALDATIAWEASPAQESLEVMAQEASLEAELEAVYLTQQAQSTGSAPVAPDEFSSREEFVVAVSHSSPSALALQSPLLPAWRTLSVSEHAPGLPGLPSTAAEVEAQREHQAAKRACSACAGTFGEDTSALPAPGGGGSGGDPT

Consider `COc1ccc(C2CNC(=O)C2)cc1OC1CCCC1` (racemic) [(±)[3H] rolipram], for which the “increase in high-affinity binding” value in data set [1] (100 mM NaCl and 1 mM MgCl2) was 20 fold. Further, the Bmax in data set [1] (rat forebrain membranes) is listed as 19.3 pmol/g rat forebrain.

Consider `COc1ccc([C@H]2CNC(=O)C2)cc1OC1CCCC1` [(S)-rolipram], for which, in data set [2], the EC50 turned out to be 1000 nM.

Consider `CCCCC[C@H](O)/C=C/[C@@H]1[C@H]2C/C(=C/CCCC(=O)O)O[C@H]2C[C@H]1O` [PGI2, prostaglandin I2], for which the fold induction at 10 µM in data set [3] (CHO-K1, 10 min, read-out: increase in basal cAMP content) worked out at 2. Besides, in data set [3] (CHO-K1, 10 min, PGI2 alone, read-out: increase in basal cAMP levels), the activation at 10 µM is ~50%.

In the case of `O=[N+]([O-])c1cccc(-c2cc(Cc3ccncc3)cc3cccnc23)c1` [RS 14203], the EC50 is 27 nM in data set [3] (CHO-K1, with 10 μM PGI2 (b116 prints 10 FM), read-out: EC50 for elevating cellular cAMP) and 10 nM in data set [2]. The “cellular cAMP reached” value in data set [3] (with PGI2, from 0.2 pmol cAMP/10^4 cells) stood at 3.6 pmols cAMP/10^4 cells. The IC50 in data set [4] (100 nM cAMP substrate, read-out: IC50 for inhibition of soluble PDE IVa activity) amounted to 9 nM; in data set [4] (5 mM MgCl2, read-out: IC50, inhibition of soluble rhPDEIVa) it was 140 nM; in data set [4] (100 mM MgCl2, read-out: IC50, inhibition of soluble rhPDEIVa), 0.5 nM. The “effect of increased salt / ionic strength on inhibitory potency (IC50)” value in data set [4] (increasing MgCl2 or other salt in assay buffer) is “became more potent; also recorded: salt dependent shift in IC50 from low to high affinity”.

On to `C=C1[C@@H](O)[C@@H]2O[C@]3(CC[C@H](/C=C/[C@@H](C)[C@@H]4CC(C)=C[C@@]5(O[C@H](C[C@@](C)(O)C(=O)O)CC[C@H]5O)O4)O3)CC[C@H]2O[C@@H]1[C@@H](O)C[C@H](C)[C@H]1O[C@@]2(CCCCO2)CC[C@H]1C` [okadaic acid], for which the “effect of preincubation on sensitivity of the enzyme to inhibitors” value in data set [3] and in data set [5] was “no effect on the sensitivity of the enzyme to inhibitors” in each case.

Consider `CO[C@H]([C@H](O)CC(=O)[C@@H](C)[C@@H](O)CC[C@@H](C)[C@@H]1O[C@]2(CC[C@@H](C)[C@H](CC[C@H](C)C(C)=O)O2)CC[C@@H]1C)[C@H](OC(=O)C[C@@H](O)C1=C(C)C(=O)OC1=O)C(C)C` [tautomycin], for which the “effect of preincubation on sensitivity of the enzyme to inhibitors” value in data set [3] and in data set [5] was “no effect on the sensitivity of the enzyme to inhibitors” throughout.

B1: PDE IVa: recombinant full-length human PDE IVa enzyme stably expressed in CHO-K1 cells (protein, UniProt P27815 1-886, looked up)
chain: MEPPTVPSERSLSLSLPGPREGQATLKPPPQHLWRQPRTPIRIQQRGYSDSAERAERERQPHRPIERADAMDTSDRPGLRTTRMSWPSSFHGTGTGSGGAGGGSSRRFEAENGPTPSPGRSPLDSQASPGLVLHAGAATSQRRESFLYRSDSDYDMSPKTMSRNSSVTSEAHAEDLIVTPFAQVLASLRSVRSNFSLLTNVPVPSNKRSPLGGPTPVCKATLSEETCQQLARETLEELDWCLEQLETMQTYRSVSEMASHKFKRMLNRELTHLSEMSRSGNQVSEYISTTFLDKQNEVEIPSPTMKEREKQQAPRPRPSQPPPPPVPHLQPMSQITGLKKLMHSNSLNNSNIPRFGVKTDQEELLAQELENLNKWGLNIFCVSDYAGGRSLTCIMYMIFQERDLLKKFRIPVDTMVTYMLTLEDHYHADVAYHNSLHAADVLQSTHVLLATPALDAVFTDLEILAALFAAAIHDVDHPGVSNQFLINTNSELALMYNDESVLENHHLAVGFKLLQEDNCDIFQNLSKRQRQSLRKMVIDMVLATDMSKHMTLLADLKTMVETKKVTSSGVLLLDNYSDRIQVLRNMVHCADLSNPTKPLELYRQWTDRIMAEFFQQGDRERERGMEISPMCDKHTASVEKSQVGFIDYIVHPLWETWADLVHPDAQEILDTLEDNRDWYYSAIRQSPSPPPEEESRGPGHPPLPDKFQFELTLEEEEEEEISMAQIPCTAQEALTAQGLSGVEEALDATIAWEASPAQESLEVMAQEASLEAELEAVYLTQQAQSTGSAPVAPDEFSSREEFVVAVSHSSPSALALQSPLLPAWRTLSVSEHAPGLPGLPSTAAEVEAQREHQAAKRACSACAGTFGEDTSALPAPGGGGSGGDPT
modifications: full-length
notes: recombinant full-length human PDE IVa enzyme stably expressed in CHO-K1 cells
B1: the Vmax in data set [6] (soluble PDE IVa from CHO-K1 cells) is given as 19.5 nM cAMP hydrolyzed/mg. protein per min. For the same molecule, the Km in data set [6] (soluble PDE IVa from CHO-K1 cells, read-out: Km of the enzyme for cAMP as a substrate) came to 3.5 µM.

B2: FLAG PDE IVA: purified full-length epitope FLAG PDE IVA enzyme (protein, UniProt P27815 1-886, looked up)
chain: MEPPTVPSERSLSLSLPGPREGQATLKPPPQHLWRQPRTPIRIQQRGYSDSAERAERERQPHRPIERADAMDTSDRPGLRTTRMSWPSSFHGTGTGSGGAGGGSSRRFEAENGPTPSPGRSPLDSQASPGLVLHAGAATSQRRESFLYRSDSDYDMSPKTMSRNSSVTSEAHAEDLIVTPFAQVLASLRSVRSNFSLLTNVPVPSNKRSPLGGPTPVCKATLSEETCQQLARETLEELDWCLEQLETMQTYRSVSEMASHKFKRMLNRELTHLSEMSRSGNQVSEYISTTFLDKQNEVEIPSPTMKEREKQQAPRPRPSQPPPPPVPHLQPMSQITGLKKLMHSNSLNNSNIPRFGVKTDQEELLAQELENLNKWGLNIFCVSDYAGGRSLTCIMYMIFQERDLLKKFRIPVDTMVTYMLTLEDHYHADVAYHNSLHAADVLQSTHVLLATPALDAVFTDLEILAALFAAAIHDVDHPGVSNQFLINTNSELALMYNDESVLENHHLAVGFKLLQEDNCDIFQNLSKRQRQSLRKMVIDMVLATDMSKHMTLLADLKTMVETKKVTSSGVLLLDNYSDRIQVLRNMVHCADLSNPTKPLELYRQWTDRIMAEFFQQGDRERERGMEISPMCDKHTASVEKSQVGFIDYIVHPLWETWADLVHPDAQEILDTLEDNRDWYYSAIRQSPSPPPEEESRGPGHPPLPDKFQFELTLEEEEEEEISMAQIPCTAQEALTAQGLSGVEEALDATIAWEASPAQESLEVMAQEASLEAELEAVYLTQQAQSTGSAPVAPDEFSSREEFVVAVSHSSPSALALQSPLLPAWRTLSVSEHAPGLPGLPSTAAEVEAQREHQAAKRACSACAGTFGEDTSALPAPGGGGSGGDPT
modifications: full-length FLAG epitope tag
On to B2, for which the Vmax was determined as 9.7 ± 0.2 μm/mg/min in data set [6] (150 mM KCl, 0 mg/ml HSA) and 4.8 ± 0 μm/mg/min in data set [6] (150 mM KCl, 3 mg/ml HSA). For the same molecule, the Km in data set [6] (150 mM KCl, 3 mg/ml HSA, read-out: Km) was 4.8 ± 0.1 µM.
